Reference: patent publication US20040224313A1, “Polymorphisms in the human cyp2b6 gene and their use in diagnostic and therapeutic applications” (priority 2000, published 2004)
Substitutions are numbered along the chain they refer to.

Experiments:
CYP2B6 [1] = molecular target: T1, CYP2B6 (Homo sapiens, UniProt P20813, R487C); conditions: human liver microsomes, homozygous carriers of R487C (C1459T)
T1 sequence (P20813 1-491 R487C): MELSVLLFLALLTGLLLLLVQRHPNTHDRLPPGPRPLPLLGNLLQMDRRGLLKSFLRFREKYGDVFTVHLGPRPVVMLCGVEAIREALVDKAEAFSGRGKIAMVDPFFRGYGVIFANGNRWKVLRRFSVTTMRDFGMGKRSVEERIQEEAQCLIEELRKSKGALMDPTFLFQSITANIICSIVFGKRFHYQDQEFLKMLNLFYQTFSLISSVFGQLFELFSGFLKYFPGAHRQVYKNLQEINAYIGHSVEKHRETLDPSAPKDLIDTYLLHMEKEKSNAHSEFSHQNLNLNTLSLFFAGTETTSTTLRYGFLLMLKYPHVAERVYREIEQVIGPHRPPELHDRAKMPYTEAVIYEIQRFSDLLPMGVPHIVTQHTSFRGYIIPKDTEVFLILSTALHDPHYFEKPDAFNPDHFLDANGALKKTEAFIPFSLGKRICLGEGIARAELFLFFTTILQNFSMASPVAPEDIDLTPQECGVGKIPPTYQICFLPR
Experimental: (§1) FIG. 4: Analysis of CYP2B6 protein expression (A) and enzymatic function (B). CYP2B6 protein was determined by immunoblotting and the S-mephenytoin N-demethylation to Nirvanol was measured in 92 liver microsome samples. The 5 nonsynonymous CYP2B6 mutations were determined in DNA from the same 92 individuals. Wt indicates the group of 30 individuals with homozygous wild-type genotype; 487 R/C and 487 C/C show the results for individuals heterozygous or homozygous for the exon 9 mutation, respectively. All other mutant genotypes are collectively shown. The average expression and activity of each group is shown as horizontal line. Statistical significance was evaluated by the t-test in comparison to the Wt group: * P<0.05; ** P<0.01.
(§2) The functional significance of the mutations in the CYP2B6 gene (Table 2) was investigated by analyzing expression and enzymatic activity of CYP2B6 in a large human liver bank. A specific monoclonal antibody, MAB-2B6 (Gentest Corp., Woburn, Mass., USA) was used to immunoquantitate microsomal CYP2B6. S-mephenytoin N-demethylation to Nirvanol was measured as a rather CYP2B6-specific pathway. The five nonsynonymous mutations were determined in all samples.

CYP2B6 [2] = molecular target: T2, CYP2B6 (Homo sapiens, UniProt P20813); conditions: human liver microsomes, homozygous wild-type (Wt) group
T2 sequence (P20813 1-491): T1 sequence (P20813 1-491 R487C) with C487R
Experimental: as §1, §2

CYP2B6 [3] = conditions: human liver microsomes, heterozygous carriers of R487C (C1459T)
Experimental: as §1, §2

## CC[C@@]1(c2ccccc2)NC(=O)N(C)C1=O [S-mephenytoin]
CYP2B6 [1]
  mean enzyme activity, S-mephenytoin N-demethylation: 22.2±8.4 pmoles of nirvanol formed/min*mg
CYP2B6 [2]
  mean enzyme activity, S-mephenytoin N-demethylation: 49.2±49.4 pmoles of nirvanol formed/min*mg
CYP2B6 [3]
  mean enzyme activity, S-mephenytoin N-demethylation: 25.9±15.2 pmoles of nirvanol formed/min*mg
